Source: US20100303727A1, “OPTICAL IMAGING AGENTS” (priority 2007, published 2010)
Read-outs that look alike come from different tables or passages of the source. Bridge positions count the residues as written; N and C are the ends. Peptide text beside a SMILES is read from it. * marks the point of attachment. X3 = CC[N+]1=C(/C=C/C=C/C=C2/N(CCCCCC(=O)*)c3ccc(S(=O)(=O)O)cc3C2(C)C)C(C)(C)c2cc(S(=O)(=O)[O-])ccc21; X1 = C[N+]1=C(/C=C/C=C/C=C2/N(CCCCCC(=O)*)c3ccccc3C2(C)C)C(C)(C)c2cc(S(=O)(=O)[O-])ccc21; X2 = NC(=O)COCC(=O)NCCOCCOCCOCCN*

Assays:
[1] = test system: collagen; type: binding; settings: 1 h 37° C., Ex646/Em678 nm
Protocol: Commercially available collagen-covered 96-well plates were used (BD Biocoat, Art. code BDAA 356649, Becton, Dickinson Biosciences, Two Oak Park, Bedford, Mass. 01730). Triplicate wells were made of each test Compound at 30 nM, 100 nM or 300 nM (1000 nM included in some cases), and the plate was incubated in the plate reader for one hour at 37° C. with shaking every other minute*. The volume in each well was 200 μl. At the end of the incubation, 150 μl supernatant was transferred to an untreated 96-well plate, and the fluorescence was read with excitation at 646 nm and emission at 678 nm wavelengths.
For calculation of the degree of binding, the fluorescence from the supernatants was compared to the fluorescence from 150 μl aliquots with the same initial concentrations. In all cases, median values from 3 wells were used.

[2] = type: in vitro ADME, mouse
Protocol: Mouse plasma (non-sterile) was purchased from Rockland, Pa., USA. This plasma is stabilized with heparin, sodium. The substance was dissolved in PBS and plasma, respectively, at concentrations 0.1/0.2 mg/mL. Both blank samples (solvent without peptide) and peptide dissolved in plasma/PBS were incubated at 37° C. for about 4 hours. After incubation the proteins were removed by ultrafiltration using non-sterile Ultrafree®-MC centrifuge tubes with filter insert from Millipore Co. (Amicon). The cut-off of the filters was 30,000 NMWL Prior to centrifugation the plasma samples were diluted 1:1 with water. The samples were analysed by HPLC using visible detection.
The substance was dissolved in PBS, concentration 0.1 mg/mL. The fluorescence intensity of the ultracentrifuged samples was measured using Fluoroskan Ascent® FL equipped with plate reader (Thermo Labsystems Oy, Finland). Excitation wavelength was at 646 nm and emission wavelength at 678 nm and measurements were performed at two different concentrations of the substance, 6.5 μg/mL and 23 μg/mL plasma.
The Ultimate 3000 micro liquid chromatograph equipped with UV-Vis detector was applied in this study. The solution has an intense bluish colour and absorbs well at 650 nm.
The chromatography was performed on an X-Terra RP18 column 2.1×150 mm, 3.5 μm particles from Waters using a gradient elution of acetonitrile (ACN) and phosphate buffer (20 mM, pH 7.1); 650 nm detection; flow rate 0.1 mL/min; injection volume: 5 μL. Gradient: initiated at 22% ACN in buffer, increasing linearly to 50% ACN over 12 min; rapid linear increase of gradient to 90% ACN for 2 min followed; then equilibration to the starting mixture. Total analysis time was 20 min, with a retention time for the main peak of ˜9 min. Degradation/impurities were reported as changes in purity of the main peak.

[3] = biological target: T1, αVβ3 receptor (Homo sapiens, UniProt P05106+P06756); test: Competition assay using 125I-echistatin on EA-Hy926 membranes; type: binding; settings: for Ki: competition with 125I-Echistatin, EA-Hy926 membranes
T1 construct: endogenous in cells; host or cells: EA-Hy926 human endothelial cell line (membrane preparation)
Protocol: A classical competition assay using ^125I-echistatin was performed in order to check the affinity (Ki) of the RGD-Cy^D conjugates (Compounds 1 to 8) towards membranes expressing. the αVβ3 receptor. Ki was determined in receptor competition studies with membranes prepared from human endothelial cells. Membranes from the human endothelial adenocarcinoma cell line EA-Hy926 that express several integrins including αVβ3 were prepared and used as a receptor source. Competitive binding of ^125I-Echistatin, a known […] for several integrins including αVβ3, was carried out with varying concentrations of cold compounds.

[4] = human, plasma
[5] = test system: HT-29 tumour; test: In vivo optical imaging of HT-29 tumour-bearing mice; settings: mean tumour region intensity divided by mean muscle region intensity, iv injection, HT-29 tumours s.c.
Protocol: Female BALB c/A nude (Bom) mice were used in the study. The use of the animals was approved by the local ethics committee. As the animals were immunocompromised, they were housed in individually ventilated cages (IVC, Scanbur BK) supplied with HEPA filtered air. The animals had ad libitum access to “Rat and Mouse nr. 3 Breeding” diet (Scanbur BK) and tap water acidified by addition of HCl to a molar concentration of 1 mM (pH 3.0). In order to protect the animals during handling and all procedures before the imaging procedure, they were handled under conditions of laminar HEPA filtered air.
The animals were allowed an acclimatisation period of at least 5 days before being injected s.c. with HT-29 tumour cell suspensions at two sites (shoulder and left, lower flank) with a nominal dose of 2.5-3×10^6 cells per injection in a volume of 100 μl. The s.c. injections were performed under light gas anaesthesia. […]
Image analysis was performed with custom written MATLAB software. […] The mean signal of the pixel values inside each region was calculated. The mean signal and pixel standard deviation was calculated.
Based on the in-vitro data from example 7-10, in-vivo results from compounds 1, 2, 4 and 6 are presented. Tumour enhancement is quantified by a target to background ratio (TBR) defined as the ratio of the mean tumour region intensity divided by the mean muscle region intensity.

SMILES | Collagen binding (% bound) ([1]; initial conc. 30 nM) [%] | Collagen binding (% bound) ([1]; initial conc. 100 nM) [%] | Collagen binding (% bound) ([1]; initial conc. 300 nM) [%] | Collagen binding (% bound) ([1]; initial conc. 1000 nM) [%] | % main peak area (after 4 h incubation in mouse plasma) [2] [%] | Ki [3] [nM] | PPB (ranking in words) [4] | Ki (in words) ([3]; summary of Example 10) | Target to background ratio (TBR) [5]
CC1(CCCCS(=O)(=O)O)C(/C=C/C=C/C=C2\N(CCCCCC(=O)NCCCC[C@@H]3NC(=O)CSC[C@@H](C(=O)NCCOCCOCCOCCNC(=O)COCC(N)=O)NC(=O)[C@H](Cc4ccccc4)NC(=O)[C@@H]4CSSC[C@H](NC3=O)C(=O)N[C@@H](CCCNC(=N)N)C(=O)NCC(=O)N[C@@H](CC(=O)O)C(=O)N4)c3ccc(S(=O)(=O)O)cc3C2(C)CCCCS(=O)(=O)O)=[N+](Cc2ccccc2)c2ccc(S(=O)(=O)[O-])cc21 (stereo partly drawn) [Compound 5] | 83.6 | 96.1 | 50.9 | 30.4 | 46 |  |  |  | 
C[N+]1=C(/C=C/C=C/C=C2/N(CCCCCC(=O)NCCCC[C@@H]3NC(=O)CSC[C@@H](C(=O)NCCOCCOCCOCCNC(=O)COCC(N)=O)NC(=O)[C@H](Cc4ccccc4)NC(=O)[C@@H]4CSSC[C@H](NC3=O)C(=O)N[C@@H](CCCNC(=N)N)C(=O)NCC(=O)N[C@@H](CC(=O)O)C(=O)N4)c3ccccc3C2(C)C)C(C)(C)c2cc(S(=O)(=O)[O-])ccc21 [Compound 3, RGD-Cy5(1)) Dye Conjugate] ({CH2CO}-K(X1)CRGDCFC-X2; disulfide 2-6; thioether N-8) |  |  |  |  |  | 2.6 | highest PPB |  | 
CC1(C)C(/C=C/C=C/C=C2/N(CCCS(=O)(=O)O)c3ccc(S(=O)(=O)O)cc3C2(C)CCCCCC(=O)NCCCC[C@@H]2NC(=O)CSC[C@@H](C(=O)NCCOCCOCCOCCNC(=O)COCC(N)=O)NC(=O)[C@H](Cc3ccccc3)NC(=O)[C@@H]3CSSC[C@H](NC2=O)C(=O)N[C@@H](CCCNC(=N)N)C(=O)NCC(=O)N[C@@H](CC(=O)O)C(=O)N3)=[N+](CCCS(=O)(=O)O)c2ccc(S(=O)(=O)O)cc21 (stereo partly drawn) [Compound 6, RGD-Alexa 647 Dye Conjugate] |  |  |  |  | 100 | 1.6 | lowest |  | 
CC[N+]1=C(/C=C/C=C/C=C2/N(CCCCCC(=O)NCCCC[C@@H]3NC(=O)CSC[C@@H](C(=O)NCCOCCOCCOCCNC(=O)COCC(N)=O)NC(=O)[C@H](Cc4ccccc4)NC(=O)[C@@H]4CSSC[C@H](NC3=O)C(=O)N[C@@H](CCCNC(=N)N)C(=O)NCC(=O)N[C@@H](CC(=O)O)C(=O)N4)c3ccc(S(=O)(=O)O)cc3C2(C)C)C(C)(C)c2cc(S(=O)(=O)[O-])ccc21 [Compound 1, RGD-[Cy5(2)] Dye Conjugate] ({CH2CO}-K(X3)CRGDCFC-X2; disulfide 2-6; thioether N-8) |  |  |  |  |  | 1.9 |  |  | 
CC1(CCCCS(=O)(=O)[O-])C(/C=C/C=C/C=C2\N(CCCCS(=O)(=O)O)c3c(F)c(F)c(F)c(F)c3C2(C)CCCCS(=O)(=O)O)=[N+](CCCCCC(=O)NCCCC[C@@H]2NC(=O)CSC[C@@H](C(=O)NCCOCCOCCOCCNC(=O)COCC(N)=O)NC(=O)[C@H](Cc3ccccc3)NC(=O)[C@@H]3CSSC[C@H](NC2=O)C(=O)N[C@@H](CCCNC(=N)N)C(=O)NCC(=O)N[C@@H](CC(=O)O)C(=O)N3)c2c(F)c(F)c(F)c(F)c21 (stereo partly drawn) [Compound 7] |  |  |  |  | 70 | 7.4 | highest PPB | slightly higher Ki value | 
CC[N+]1=C(/C=C/C=C/C=C2/N(CCCCCC(=O)NCCCC[C@@H]3NC(=O)CSC[C@@H](C(=O)NCCOCCOCCOCCNC(=O)COCC(N)=O)NC(=O)[C@H](CCCNC(=N)N)NC(=O)[C@@H]4CSSC[C@H](NC3=O)C(=O)NCC(=O)N[C@@H](CC(=O)O)C(=O)N[C@@H](Cc3ccccc3)C(=O)N4)c3ccc(S(=O)(=O)O)cc3C2(C)C)C(C)(C)c2cc(S(=O)(=O)[O-])ccc21 [Compound 2, neg-RGD-[Cy5(2)] Dye Conjugate] ({CH2CO}-K(X3)CGDFCRC-X2; disulfide 2-6; thioether N-8) | 87 | 81.1 | 83 |  |  |  |  |  | 1.14
CC1(CCCCS(=O)(=O)O)C(/C=C/C=C/C=C2/N(CCCCCC(=O)NCCCC[C@@H]3NC(=O)CSC[C@@H](C(=O)NCCOCCOCCOCCNC(=O)COCC(N)=O)NC(=O)[C@H](Cc4ccccc4)NC(=O)[C@@H]4CSSC[C@H](NC3=O)C(=O)N[C@@H](CCCNC(=N)N)C(=O)NCC(=O)N[C@@H](CC(=O)O)C(=O)N4)c3ccc(S(=O)(=O)O)cc3C2(C)C)=[N+](CCCCS(=O)(=O)O)c2ccc(S(=O)(=O)O)cc21 (stereo partly drawn) [Compound 4, RGD-Cy5** Dye Conjugate] |  |  |  |  | 100 | 1.8 | lowest |  | 
CCN1\C(=C/C=C/C=C/C2=[N+](CCCCCC(=O)NCCOCCOCCOCCNC(=O)COCC(=O)NCCCC[C@@H]3NC(=O)CSC[C@@H](C(=O)NCCOCCOCCOCCNC(=O)COCC(N)=O)NC(=O)[C@H](Cc4ccccc4)NC(=O)[C@@H]4CSSC[C@H](NC3=O)C(=O)N[C@@H](CCCNC(=N)N)C(=O)NCC(=O)N[C@@H](CC(=O)O)C(=O)N4)c3ccc(S(=O)(=O)[O-])cc3C2(C)C)C(C)(C)c2cc(S(=O)(=O)O)ccc21 [Compound 8] | 92.1 | 85.9 | 56.7 | 32.7 | 93 |  |  |  | 
